The values that follow come from patent publication US12421242B2, “Substituted tetrahydropyrrolo-pyridinone compounds and their use in treating medical conditions” (Karuna Therapeutics, Inc., priority 2022, dated 2025).

One test has as its target T1, hM4 receptors (Homo sapiens, UniProt P08173).
T1 construct: expressed in transfected cells; host or cells: CHO cells
T1 sequence (P08173 1-479): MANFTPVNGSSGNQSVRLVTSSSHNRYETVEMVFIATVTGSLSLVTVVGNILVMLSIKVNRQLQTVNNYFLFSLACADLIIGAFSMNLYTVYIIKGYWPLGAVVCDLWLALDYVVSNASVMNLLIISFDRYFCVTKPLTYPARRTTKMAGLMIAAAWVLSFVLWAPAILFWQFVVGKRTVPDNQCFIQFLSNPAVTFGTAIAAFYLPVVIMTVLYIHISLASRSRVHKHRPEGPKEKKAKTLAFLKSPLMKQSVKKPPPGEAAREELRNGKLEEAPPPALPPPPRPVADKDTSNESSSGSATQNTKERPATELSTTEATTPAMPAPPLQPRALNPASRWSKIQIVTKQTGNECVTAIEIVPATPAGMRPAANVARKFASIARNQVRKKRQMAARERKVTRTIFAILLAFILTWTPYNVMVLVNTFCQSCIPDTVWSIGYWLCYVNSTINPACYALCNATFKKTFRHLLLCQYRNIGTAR
As to the kind of experiment: Human M4 PAM pERK assay. To be noted: PAM mode. In kind it is cell-based. As to the method: (§1) Chinese hamster ovary (CHO) cells expressing either hM4 or rM4 receptors were frozen in assay ready vials (5×10^6 cells/vial) after bulking-up in culture. The day before an assay, vial(s) were thawed and cells seeded in 384 well white proxiplates at 1000/well for hM4 cells and at 2000/well for rM4 cells, in 10 μL of growth media (Hams/F12 with glutamax and 10% FCS) and incubated overnight at 37° C./5% CO2.
(§2) On the following morning, the growth media was removed by ‘flicking out’ over a bin, patting the inverted plate onto tissue, and then replacing with 10 μL of wash media (Hams/F12 with glutamax and 8 mM HEPES, NB: serum free). Then, the wash media was removed in the same way and replaced with 8 μL/well of the serum free media. Plates were then re-incubated for a further 4 hours at 37° C./5% CO2.
(§3) Compounds for testing were solubilized to 10 mM in DMSO and compound addition plates, consisting of ten-point concentration response curves (CRC) in duplicate points (10 μM top concentration, […]), were prepared by acoustic dispensing and the compound management group.
(§4) After the 4-hour incubation in serum free media, a 4 μL aliquot of the 3× compound solution containing an EC20 of acetylcholine (10 nM final concentration) was added to the cell plate using a 384 well plate to plate transfer. Then, the plate lid was replaced, and the cells incubated for 5 mins at 37° C./5% CO2. Following this final incubation, all cellular processes were stopped by the addition of 4 μL/well of lysis and blocking buffer and plates were incubated for 30 minutes at RT on an orbital shaker (gentle setting). Then, a final addition of 4 μL/well of antibody detection mix, containing both the Europium-Cryptate (donor) and d2 (acceptor) tagged detection components, was added followed by a further 2-hour incubation at RT, and then the plate was read using a TR-FRET (time resolved fluorescence resonance energy transfer) based protocol.

In another test the target is T2, rM4 receptors (Rattus norvegicus, UniProt P08485).
T2 construct: expressed in transfected cells; host or cells: CHO cells
T2 sequence (P08485 1-478): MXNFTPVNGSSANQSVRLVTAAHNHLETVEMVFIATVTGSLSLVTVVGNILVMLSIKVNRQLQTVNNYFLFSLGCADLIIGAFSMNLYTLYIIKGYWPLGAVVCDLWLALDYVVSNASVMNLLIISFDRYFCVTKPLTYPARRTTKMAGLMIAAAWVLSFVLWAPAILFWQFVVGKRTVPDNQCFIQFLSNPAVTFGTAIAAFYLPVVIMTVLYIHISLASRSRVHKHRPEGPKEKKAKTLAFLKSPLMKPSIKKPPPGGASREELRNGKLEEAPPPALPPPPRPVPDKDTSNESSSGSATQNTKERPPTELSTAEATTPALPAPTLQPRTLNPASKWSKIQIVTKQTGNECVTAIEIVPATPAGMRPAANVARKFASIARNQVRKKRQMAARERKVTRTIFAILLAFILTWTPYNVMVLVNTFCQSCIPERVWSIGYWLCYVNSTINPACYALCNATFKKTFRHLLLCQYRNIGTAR
Put plainly: Rat M4 PAM pERK assay. In kind it is cell-based. To be noted: PAM mode. As for the experimental part:
as §1, §2, §3, §4

The target in the next test is T3, human M4 receptor (Homo sapiens, UniProt P08173).
T3 construct: expressed in transfected cells
T3 sequence (P08173 1-479): T1 sequence (P08173 1-479)
As to the kind of experiment: M4 GTPγS PAM assay. The class given is biochemical. To be noted: CHO-K1 membranes expressing human M4, with EC20 acetylcholine (40 nM). As for the experimental part: The M4 GTPγS PAM method was used. Membranes were prepared for GTPgS binding assays from CHO-K1 cells stably expressing human M4 receptor. Briefly, cells were grown in 5-layer cell culture flasks. Cells were washed with 50 mL of PBS and then dissociated with 0.05% trypsin. Dissociated cells were then collected by centrifugation at 650×g for 8 minutes at 4° C. Pellets were washed again in PBS by centrifugation and resuspended in 30 mL of 20 mM HEPES, 10 mM EDTA, pH 7.4. After sitting on ice for 30 min, membranes were collected by centrifugation at 50000×g for 15′ at 4° C., resuspended in 30 mL of 20 mM HEPES, 0.1 mM EDTA, pH 7.4 and collected again by centrifugation. Pellets were then washed twice by centrifugation in 30 mL of 20 mM HEPES, pH 7.4, and stored at −80° C. until the day of the assay. On the day of the assay, pellets were thawed on ice and resuspended in 1 mL of 20 mM HEPES, pH 7.4, 10 mM MgCl2, 100 mM NaCl using dounce homogenization. Membrane protein concentration is determined by BCA protein assay (Promega, Madison, WI) according to Promega guidelines.
On the day of the assay, serial dilutions of test PAM compounds were brought up in assay buffer (20 mM HEPES, 10 mM MgCl2, 100 mM NaCl) at 4× final assay concentration. […] of membrane homogenates (containing […] of membrane protein) were prepared in assay buffer supplemented with GDP at 4× final assay concentration (final assay concentration of GDP is 5 uM for M2 and 0.1 uM for M4) and dispensed into 96 well polypropylene, U-bottom Greiner plates. […] of vehicle or test PAM compound at 4× of final assay concentration diluted in the assay buffer were added to membrane and plates are incubated for 10-15 minutes at room temperature with gentle shaking. Then, […] of EC20 acetylcholine in assay buffer at 4× final assay concentration was added to assay plates (EC20 final assay concentrations was 40 nM for human M4).
Plates were then incubated, with shaking, for an additional 10-15 minutes. 25 mL of 0.4 nM ^35S-GTP (Perkin Elmer, Waltham, MA) in assay buffer was added to assay mixtures. The binding reaction is left on the shaker for 1 hour at room temperature. Membranes in assay reactions were then transferred to GF/C filter plates (Unifilter, Perkin Elmer) and washed three times using a FilterMate Harvester (Perkin Elmer) with cold assay buffer containing no GDP. Filter plates were then dried at 40° C. overnight followed by the addition of […] of Beta Plate Scintillation liquid. Plates are top and bottom sealed before being read on TopCount scintillation counter (Perkin Elmer, Waltham, MA).

The term EC50 denotes the midpoint of the concentration-response curve. Read a low EC50 as an effect from little substance.

With `COc1c2c(n(C)c(=O)c1C)CN(C(=O)c1cnn(C(F)(F)F)c1)C2C` (racemic) [Compound I-82, 4-Methoxy-1,3,5-trimethyl-6-(1-(trifluoromethyl)-1H-pyrazole-4-carbonyl)-1,5,6,7-tetrahydro-2H-pyrrolo[3,4-b]pyridin-2-one], the EC50 lay in the range of 0.1 to 0.5 µM on hM4 receptors, 0.5 to 2 µM on rM4 receptors and 0.1 to 0.5 µM at human M4 receptor.
On to `COc1c2c(n(C)c(=O)c1Cl)CN(C(=O)c1cnn(C(F)(F)F)c1)C2C` (single isomer, unassigned) [Compound I-74], for which the EC50 at hM4 receptors is under 0.1 µM; at rM4 receptors, 0.5 to 2 µM; at human M4 receptor, 0.5 to 2 µM.
`COc1c2c(n(C)c(=O)c1Cl)CN(C(=O)c1cnn(C(F)(F)F)c1)C2C` (single isomer, unassigned) [Compound I-75]: the 50% effective concentration (EC50) on hM4 receptors, on rM4 receptors and on human M4 receptor was over 2 µM throughout.
As for `COc1cc(=O)n(C)c2c1C(C)N(C(=O)c1cnn(C(F)(F)F)c1)C2` (single isomer, unassigned) [Compound I-80], the EC50 is 0.1 to 0.5 µM on hM4 receptors, over 2 µM at rM4 receptors and over 2 µM at human M4 receptor.
Take `Cc1cc(=O)n(C)c2c1CN(C(=O)c1cnn(C)c1)C2C` (single isomer, unassigned) [Compound I-106]: the EC50 on hM4 receptors and on human M4 receptor was over 2 µM throughout.
`Cc1c2c(n(C)c(=O)c1Cl)CN(C(=O)c1cn(C)c(C)n1)C2` [Compound I-11]: the EC50 on hM4 receptors and on human M4 receptor was over 2 µM each time.
`Cc1c2c(n(C)c(=O)c1Cl)CN(C(=O)c1cncc(C(F)(F)F)c1)C2` [Compound I-48]: the EC50 at hM4 receptors and on human M4 receptor was over 2 µM each time.
For `Cc1c2c(n(CC3CC3)c(=O)c1Cl)CN(C(=O)c1cnc(CC3CC3)s1)C2` [Compound I-69, 3-Chloro-1-(cyclopropylmethyl)-6-(2-(cyclopropylmethyl)thiazole-5-carbonyl)-4-methyl-1,5,6,7-tetrahydro-2H-pyrrolo[3,4-b]pyridin-2-one], the EC50 at hM4 receptors was 0.1 to 0.5 µM; at rM4 receptors, over 2 µM.
`Cc1c2c(n(CC3CC3)c(=O)c1Cl)CN(C(=O)c1ccc3nc(C4CCC4)sc3c1)C2` [Compound I-70]: the EC50 on hM4 receptors and on rM4 receptors was 0.1 to 0.5 µM in each case.
`Cc1c2c(n(C)c(=O)c1Cl)CN(C(=O)c1cnn(C(F)F)c1)[C@@H]2C` [Compound I-77]: the EC50 is under 0.1 µM on hM4 receptors and 0.1 to 0.5 µM on rM4 receptors.
For `Cc1c2c(n(C)c(=O)c1C)CN(C(=O)c1cnn(C(F)(F)F)c1)[C@@H]2C` [Compound I-78, (R)-1,3,4,5-Tetramethyl-6-(1-(trifluoromethyl)-1H-pyrazole-4-carbonyl)-1,5,6,7-tetrahydro-2H-pyrrolo[3,4-b]pyridin-2-one], the EC50 at hM4 receptors was under 0.1 µM; on rM4 receptors, 0.1 to 0.5 µM.
On to `COc1c2c(n(C)c(=O)c1C)CN(C(=O)c1cnn(CC(F)(F)F)c1)C2` [Compound I-85, 4-Methoxy-1,3-dimethyl-6-(1-(2,2,2-trifluoroethyl)-1H-pyrazole-4-carbonyl)-1,5,6,7-tetrahydro-2H-pyrrolo[3,4-b]pyridin-2-one], for which the EC50 was 0.5 to 2 µM on hM4 receptors and over 2 µM at rM4 receptors.
For the compound `COc1c2c(n(C)c(=O)c1C)CN(C(=O)c1cnc(CC3CC3)s1)C2` [Compound I-86], the EC50 was 0.1 to 0.5 µM on hM4 receptors and over 2 µM at rM4 receptors.
Regarding `CCOc1c2c(n(C)c(=O)c1C)CN(C(=O)c1cnn(C(F)(F)F)c1)C2` [Compound I-88, 4-Ethoxy-1,3-dimethyl-6-(1-(trifluoromethyl)-1H-pyrazole-4-carbonyl)-1,5,6,7-tetrahydro-2H-pyrrolo[3,4-b]pyridin-2-one], the figures for the 50% effective concentration (EC50) at hM4 receptors and at rM4 receptors were under 0.1 µM and over 2 µM, respectively.
With `CSc1c2c(n(C)c(=O)c1C)CN(C(=O)c1cnc(CC3CC3)s1)C2` [Compound I-91], the EC50 on hM4 receptors is 0.1 to 0.5 µM; at rM4 receptors, over 2 µM.
On to `Cc1cc(=O)n(C)c2c1C(C)N(C(=O)c1cnn(C(F)(F)F)c1)C2` (centres unmarked) [Compound I-93], for which the EC50 at hM4 receptors was under 0.1 µM; at rM4 receptors, over 2 µM.
On to `Cc1cc(=O)n(C)c2c1CN(C(=O)c1cnn(C)c1)C2C` (centres unmarked) [Compound I-105, 1,4,7-Trimethyl-6-(1-methyl-1H-pyrazole-4-carbonyl)-1,5,6,7-tetrahydro-2H-pyrrolo[3,4-b]pyridin-2-one], for which the EC50 on hM4 receptors and on human M4 receptor was over 2 µM throughout.
With `Cc1c2c(n(C)c(=O)c1C(F)(F)F)CN(C(=O)c1cnn(C)c1)C2` [Compound I-110, 1,4-Dimethyl-6-(1-methyl-1H-pyrazole-4-carbonyl)-3-(trifluoromethyl)-1,5,6,7-tetrahydro-2H-pyrrolo[3,4-b]pyridin-2-one], the EC50 on hM4 receptors is 0.1 to 0.5 µM; at rM4 receptors, over 2 µM.
Taken in the same sequence, the figures for `Cc1c2c(n(C)c(=O)c1C)CN(C(=O)c1ccc3nc(C4CC4)sc3c1)C2` [Compound I-111, 6-(2-Cyclopropylbenzo[d]thiazole-6-carbonyl)-1,3,4-trimethyl-1,5,6,7-tetrahydro-2H-pyrrolo[3,4-b]pyridin-2-one] were over 2 µM and 0.1 to 0.5 µM.
As to `Cc1c2c(n(C)c(=O)c1F)CN(C(=O)c1cnn(C(F)(F)F)c1)[C@@H]2C` [Compound I-114, (R)-3-Fluoro-1,4,5-trimethyl-6-(1-(trifluoromethyl)-1H-pyrazole-4-carbonyl)-1,5,6,7-tetrahydro-2H-pyrrolo[3,4-b]pyridin-2-one], the EC50 at hM4 receptors is under 0.1 µM; at rM4 receptors, 0.1 to 0.5 µM.
